From ChEMBL document CHEMBL1201862, “PubChem BioAssay data set” (2004)
Active and inactive are the calls of the source.

Assays:
Protein skinhead-1 = biological target: T1, Protein skinhead-1 (Caenorhabditis elegans, UniProt P34707); assay type: functional
T1 sequence (P34707 whole entry): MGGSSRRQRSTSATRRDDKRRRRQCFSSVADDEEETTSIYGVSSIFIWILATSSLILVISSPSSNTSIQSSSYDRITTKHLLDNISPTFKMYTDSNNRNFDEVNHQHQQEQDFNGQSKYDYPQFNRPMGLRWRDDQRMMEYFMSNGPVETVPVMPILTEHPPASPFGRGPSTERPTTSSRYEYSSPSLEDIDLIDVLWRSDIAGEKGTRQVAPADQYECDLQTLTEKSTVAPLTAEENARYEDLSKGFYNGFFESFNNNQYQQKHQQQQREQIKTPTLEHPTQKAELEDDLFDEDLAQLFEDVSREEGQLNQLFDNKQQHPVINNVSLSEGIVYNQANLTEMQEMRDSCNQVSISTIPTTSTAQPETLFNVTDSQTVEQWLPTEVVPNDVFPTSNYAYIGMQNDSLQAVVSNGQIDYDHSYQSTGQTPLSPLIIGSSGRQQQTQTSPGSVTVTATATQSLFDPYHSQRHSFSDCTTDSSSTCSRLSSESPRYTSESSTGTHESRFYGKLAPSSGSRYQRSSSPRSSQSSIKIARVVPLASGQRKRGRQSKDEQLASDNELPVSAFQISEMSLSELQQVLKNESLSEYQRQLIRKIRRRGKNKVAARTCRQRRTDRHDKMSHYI

Large T antigen = Large T antigen (Simian virus 40, UniProt P03070); assay type: functional, Betapolyomavirus macacae;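 further: Confirmatory-stage PubChem screen for compounds that inhibit SV40 T antigen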
[1] = growth suppression of PTEN-null colon cells, dose response, cell-based, HCT116 PTEN knockout (AID 1047); assay type: functional;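 further: HCT116 colon tumor cells with PTEN knocked out; cells exposed to compound for 60 hours before readout; potency for loss of cell viability measured by luminescence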
[2] = growth suppression of beta-catenin-knockout colon cells, dose response, cell-based, HCT116, human colon tumor (AID 1045); assay type: functional;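 further: HCT116 colon tumor cells with beta catenin knocked out; cells exposed to compound for 60 hours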
[3] = biological target: T2, Rac GTPase-activating protein 1 (Homo sapiens, UniProt Q9H0H5); assay: MgcRacGAP GTPase-activating activity inhibitors, confirmation, biochemical, ADP Hunter fluorescence, primary and confirmatory (AID 624330); assay type: functional
T2 sequence (Q9H0H5 whole entry): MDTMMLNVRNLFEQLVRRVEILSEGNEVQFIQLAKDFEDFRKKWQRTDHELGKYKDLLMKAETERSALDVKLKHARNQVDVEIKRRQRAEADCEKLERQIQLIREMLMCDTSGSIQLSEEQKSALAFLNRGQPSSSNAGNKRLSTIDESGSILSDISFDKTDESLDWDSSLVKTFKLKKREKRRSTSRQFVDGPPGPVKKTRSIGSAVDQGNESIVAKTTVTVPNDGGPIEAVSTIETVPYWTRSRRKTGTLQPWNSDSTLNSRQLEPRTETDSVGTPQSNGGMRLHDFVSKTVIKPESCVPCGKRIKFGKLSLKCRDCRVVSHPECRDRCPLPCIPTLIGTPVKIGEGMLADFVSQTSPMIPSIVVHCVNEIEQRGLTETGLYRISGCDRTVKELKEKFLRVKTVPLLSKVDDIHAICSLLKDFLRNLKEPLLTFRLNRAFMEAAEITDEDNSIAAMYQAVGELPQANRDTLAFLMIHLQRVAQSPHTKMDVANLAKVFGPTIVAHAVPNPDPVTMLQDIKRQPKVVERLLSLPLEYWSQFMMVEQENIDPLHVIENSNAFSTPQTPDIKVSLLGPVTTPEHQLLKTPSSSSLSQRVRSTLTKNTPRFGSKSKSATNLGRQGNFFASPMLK

[4] = Shn3 3'UTR reporter inhibitors, dose response, cell-based, Clone20 osteoblasts, firefly luciferase, cherry-picked (AID 624132); assay type: functional;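 further: firefly luciferase luminescence from reporter carrying the Shn3 3'UTR in osteoblasts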
[5] = HepG2 cell cytotoxicity, dose response, cytotoxicity control for Shn3 inhibitor project, CellTiter-Glo, cherry-picked (AID 624134); assay type: functional, cell-based
cells [6] = assay type: functional, cell-based
cells [7] = assay type: functional, cell-based; remark: listed apart in the source
[8] = P. falciparum Dd2 growth inhibitors, dose response, SYBR Green, cherry-picked samples (AID 1159567); assay type: functional, cell-based
[9] = biological target: T3, Carboxy-terminal domain RNA polymerase II polypeptide A small phosphatase 1 (Homo sapiens, UniProt Q9GZU7); assay: inhibitors of CTDSP1, concentration-response testing, biochemical assay, absorbance-based, actives from ultra-high-throughput screening (AID 540297); assay type: functional
T3 sequence (Q9GZU7 whole entry): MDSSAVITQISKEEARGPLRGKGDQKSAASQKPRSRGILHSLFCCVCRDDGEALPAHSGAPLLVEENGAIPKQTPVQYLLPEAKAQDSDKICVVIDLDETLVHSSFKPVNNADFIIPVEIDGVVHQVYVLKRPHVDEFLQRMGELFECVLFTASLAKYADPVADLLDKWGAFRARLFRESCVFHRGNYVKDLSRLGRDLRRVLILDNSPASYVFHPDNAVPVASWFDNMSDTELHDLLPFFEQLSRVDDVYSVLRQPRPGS

[10] = biological target: T4, RNA-binding protein pos-1 (Caenorhabditis elegans, UniProt G5EF15); assay: inhibitors of POS-1/mex-3 RNA binding, dose response, biochemical, fluorescence polarization (AID 1964);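 further: purified POS-1 fused to maltose binding protein made in E. coli; potency of compounds blocking POS-1 binding to fluorescent RNA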
T4 sequence (G5EF15 whole entry): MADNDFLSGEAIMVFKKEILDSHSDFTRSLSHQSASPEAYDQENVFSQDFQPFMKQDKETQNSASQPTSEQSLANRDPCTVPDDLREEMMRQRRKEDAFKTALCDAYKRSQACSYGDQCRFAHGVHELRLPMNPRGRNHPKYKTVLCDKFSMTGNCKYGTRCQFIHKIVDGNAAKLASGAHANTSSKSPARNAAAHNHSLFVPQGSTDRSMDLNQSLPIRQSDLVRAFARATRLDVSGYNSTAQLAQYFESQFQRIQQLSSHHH

[11] = biological target: T5, Zinc finger protein mex-5 (Caenorhabditis elegans, UniProt Q9XUB2); assay: MEX-5/TCR-2 RNA interaction inhibitors, dose response, biochemical, C. elegans, fluorescence polarization (AID 1960)
T5 sequence (Q9XUB2 whole entry): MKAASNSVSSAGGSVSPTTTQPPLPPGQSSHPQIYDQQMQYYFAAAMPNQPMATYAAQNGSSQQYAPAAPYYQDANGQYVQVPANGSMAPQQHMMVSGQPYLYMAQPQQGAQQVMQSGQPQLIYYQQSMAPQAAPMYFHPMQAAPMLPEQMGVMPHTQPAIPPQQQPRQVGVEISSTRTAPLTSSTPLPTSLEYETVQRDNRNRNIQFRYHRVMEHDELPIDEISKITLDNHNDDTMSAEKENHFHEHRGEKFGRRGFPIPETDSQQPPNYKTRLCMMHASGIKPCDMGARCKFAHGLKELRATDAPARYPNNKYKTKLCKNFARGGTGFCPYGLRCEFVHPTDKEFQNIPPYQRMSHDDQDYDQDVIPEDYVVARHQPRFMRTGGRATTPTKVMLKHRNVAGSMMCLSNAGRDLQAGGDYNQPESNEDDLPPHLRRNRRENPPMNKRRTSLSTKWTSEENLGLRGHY

[12] = HEp-2 cell cytotoxicity, dose response, cytotoxicity control for RSV inhibitor project, HTS (AID 2410); assay type: functional; settings: human respiratory syncytial virus
Paired box protein Pax-8 = Paired box protein Pax-8 (Homo sapiens, UniProt Q06710); assay: inhibitors of PAX8-driven TPO luciferase reporter, dose response, RMG-I cells, cherry-pick (AID 687027); assay type: functional, cell-based;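 further: luciferase reporter driven by Pax8 target thyroperoxidase promoter measured by SteadyGlo luminescence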
Streptokinase A = biological target: T6, Streptokinase A (Streptococcus pyogenes serotype M1, UniProt P10520); assay: S. pyogenes streptokinase expression inhibitors, potency, dose response, plasminogen activation absorbance, OD405 (AID 1914); assay type: functional, Streptococcus pyogenes M1 GAS;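 further: secreted streptokinase activity via plasminogen activation per viability signal from cell pellet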
T6 sequence (P10520 whole entry): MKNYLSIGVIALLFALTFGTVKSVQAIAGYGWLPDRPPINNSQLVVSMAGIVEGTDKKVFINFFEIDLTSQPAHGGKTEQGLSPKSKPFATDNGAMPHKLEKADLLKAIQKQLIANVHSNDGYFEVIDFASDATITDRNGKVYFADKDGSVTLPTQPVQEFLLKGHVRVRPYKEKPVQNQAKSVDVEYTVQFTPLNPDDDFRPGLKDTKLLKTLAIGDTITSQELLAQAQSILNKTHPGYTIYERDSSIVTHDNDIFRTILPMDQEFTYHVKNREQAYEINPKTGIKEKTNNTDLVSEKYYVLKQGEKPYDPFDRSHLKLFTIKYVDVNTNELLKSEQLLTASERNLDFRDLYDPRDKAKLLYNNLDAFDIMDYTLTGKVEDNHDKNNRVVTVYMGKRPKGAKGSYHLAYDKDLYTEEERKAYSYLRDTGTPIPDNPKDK

Streptococcus = assay: Group A Streptococcus viability loss, dose response, counter-screen for streptokinase expression inhibitor project, luminescence, BacTiterGlo (AID 1915); assay type: functional, organism-based;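 further: potency for reduction of bacterial viability or growth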
INS1 = assay: beta cell apoptosis inhibitors, cytokine rescue, dose response, luminescence, retest (AID 449756); assay type: functional, cell-based; settings: Rattus norvegicus;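 further: cell death triggered by IL-1 beta plus TNF-alpha plus IFN-gamma mixture; protective hits raise ATP signal compared with cytokine alone wells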

Sequence of Paired box protein Pax-8 (Q06710 whole entry): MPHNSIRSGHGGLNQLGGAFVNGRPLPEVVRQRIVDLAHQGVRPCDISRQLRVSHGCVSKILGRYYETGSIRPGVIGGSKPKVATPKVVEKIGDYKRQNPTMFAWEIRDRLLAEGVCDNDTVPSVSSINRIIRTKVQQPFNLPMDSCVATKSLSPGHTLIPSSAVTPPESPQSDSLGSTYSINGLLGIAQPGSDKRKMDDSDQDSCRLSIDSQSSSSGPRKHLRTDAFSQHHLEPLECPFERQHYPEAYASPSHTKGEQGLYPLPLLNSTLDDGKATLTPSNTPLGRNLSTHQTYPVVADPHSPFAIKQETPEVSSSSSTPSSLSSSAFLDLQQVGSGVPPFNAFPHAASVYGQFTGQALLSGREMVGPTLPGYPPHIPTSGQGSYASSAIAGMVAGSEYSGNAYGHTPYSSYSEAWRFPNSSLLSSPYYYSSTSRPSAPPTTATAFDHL
Sequence of Large T antigen (P03070 whole entry): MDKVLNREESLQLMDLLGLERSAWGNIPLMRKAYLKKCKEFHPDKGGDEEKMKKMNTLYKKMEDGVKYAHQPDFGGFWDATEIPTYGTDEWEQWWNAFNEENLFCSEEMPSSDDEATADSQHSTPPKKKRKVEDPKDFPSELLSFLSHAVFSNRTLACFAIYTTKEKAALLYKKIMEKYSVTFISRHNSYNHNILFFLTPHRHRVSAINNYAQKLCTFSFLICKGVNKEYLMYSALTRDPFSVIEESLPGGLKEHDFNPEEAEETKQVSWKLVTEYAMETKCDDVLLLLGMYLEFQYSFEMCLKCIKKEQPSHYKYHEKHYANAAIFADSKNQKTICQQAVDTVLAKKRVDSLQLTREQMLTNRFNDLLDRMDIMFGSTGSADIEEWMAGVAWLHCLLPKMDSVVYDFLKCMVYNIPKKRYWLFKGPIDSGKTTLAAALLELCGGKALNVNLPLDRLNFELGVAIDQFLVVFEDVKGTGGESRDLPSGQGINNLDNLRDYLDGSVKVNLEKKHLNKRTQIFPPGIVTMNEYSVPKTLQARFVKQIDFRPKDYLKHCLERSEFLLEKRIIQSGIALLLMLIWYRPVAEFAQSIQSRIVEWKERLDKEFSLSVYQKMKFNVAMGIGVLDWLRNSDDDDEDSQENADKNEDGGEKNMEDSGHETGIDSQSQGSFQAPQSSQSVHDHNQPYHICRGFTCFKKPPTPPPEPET

## CCCCNC(=O)COC(=O)c1cc(S(=O)(=O)N2CCCCCC2)ccc1OC
Protein skinhead-1
  IC50: > 100 µM (inactive)

## Cc1cccc(N2C(=O)/C(=C/Nc3ccc(O)cc3)c3ccccc3C2=O)n1
Large T antigen
  IC50: 7.67 µM (active)

## COc1ccc(NC2=NC(=S)N(c3ccc(C)cc3)C23CCCCC3)cc1
[1]
  EC50: 3.42 µM (active)
[2]
  EC50: 2.47 µM (active)

## CSc1ccc(-c2nnn(Cc3ccc(Br)cc3)n2)cc1
Protein skinhead-1
  IC50: > 100 µM (inactive)

## Cc1ccc(C2C=NN(c3ccccc3)C2=O)cc1 (configuration not stated)
Large T antigen
  IC50: 31 µM (active)
[3]
  IC50: 115 µM (active)

## Nc1ncnc(O)c1/N=C/c1ccccc1
Large T antigen
  IC50: 28.6 µM (active)

## C=C1C(=O)O[C@H]2[C@H]1[C@H](OC(=O)CC(=O)O[C@@H]1C[C@@H](C)[C@@H]3C=CC(=O)[C@@]3(C)[C@H]3OC(=O)C(=C)[C@H]13)C[C@@H](C)[C@H]1C=CC(=O)[C@]12C
Large T antigen
  IC50: 52 µM (active)
[4]
  AC50: 1.54 µM (active)
[5]
  AC50: > 70 µM (inactive)

## O=C(COC(=O)c1cccc(S(=O)(=O)N2CCOCC2)c1)Nc1ncc(C(F)(F)F)cc1Cl
Cells [6]
  EC50: > 350 µM (not active)
Cells [7]
  EC50: > 350 µM (not active)
Protein skinhead-1
  IC50: > 100 µM (inactive)

## O=C(O)c1cccc(S(=O)(=O)Nc2ccc3oc(=O)sc3c2)c1
Large T antigen
  IC50: 46.3 µM (active)

## C[C@@H]1CN([C@H](C)CO)S(=O)(=O)c2ccc(C#C[C@@H](C)O)cc2O[C@H]1CN(C)C(=O)Nc1ccccc1
[8]
  AC50: 13 µM (active)

## Cc1ccc(NC(=O)N2CCC(NC(=O)c3cccc(C)c3)CC2)cc1
Cells [6]
  EC50: > 350 µM (not active)
Cells [7]
  EC50: > 350 µM (not active)
[9]
  IC50: 10.5 µM (active)

## COc1ccc(CC(=O)Nc2nnc(SCc3ccccc3)s2)cc1S(=O)(=O)N1CCOCC1
Protein skinhead-1
  IC50: > 100 µM (inactive)

## Cc1ccc(/C=C2\C(=O)NC(=S)N(c3cccc(F)c3)C2=O)o1
[10]
  EC50: 63.5 µM (active)
[11]
  EC50: 44.6 µM (active)
Large T antigen
  IC50: 36.7 µM (active)

## CC/N=c1\scc(C)n1/N=C/c1cc(Br)c(O)c(OC)c1
[12]
  CC50: 15.6 µM (active)
Large T antigen
  IC50: 8.55 µM (active)
[3]
  IC50: 25.2 µM (active)

## CCOC(=O)C1=CN(Cc2cccc(-c3cccnc3)c2)S(=O)(=O)N(C)C1C (configuration not stated)
Paired box protein Pax-8
  AC50: 59.2 µM (active)

## N=c1c2c(-c3ccccc3)c(-c3ccccc3)n(Cc3ccco3)c2ncn1CCO
[1]
  EC50: 1.15 µM (active)
[2]
  EC50: 1.27 µM (active)

## CN(C)c1nc(SCc2ccccc2Cl)nc2c1CCCC2
Streptokinase A
  EC50: 14 µM (active)
Streptococcus
  EC50: > 150 µM (not active)
Protein skinhead-1
  IC50: > 100 µM (inactive)

## COc1cc2cnc(-c3ccccc3)c(-c3cc(OC)c(OC)c(OC)c3)c2cc1OC
[9]
  IC50: 67.2 µM (active)

## C[C@@H]1CCCCO[C@H](CN(C)C(=O)Nc2ccc(C(F)(F)F)cc2)[C@H](C)CN([C@@H](C)CO)C(=O)c2cc(NS(=O)(=O)c3ccc(Cl)cc3)ccc2O1
Paired box protein Pax-8
  AC50: 16.4 µM (active)

## Nc1ncc(-c2ccc(-c3ccccc3)cc2F)cc1-c1ccccc1F
Protein skinhead-1
  IC50: > 100 µM (inactive)

## OC[C@H]1O[C@@H](n2cnc3c(NCc4ccco4)ncnc32)[C@H](O)[C@@H]1O [KINETIN RIBOSIDE]
Paired box protein Pax-8
  AC50: 2.25 µM (active)

## O=C(Nc1cccc([N+](=O)[O-])c1)c1cnccn1
[9]
  IC50: 5.88 µM (active)

## CCn1c(SCC(=O)Nc2cc(C)on2)nc2sc3c(c2c1=O)CCCC3
[1]
  EC50: 6.49 µM (active)
[2]
  EC50: 13.2 µM (active)
INS1
  AC50: 8.67 µM (active)

## C=CCOCCN1C(=O)C2C3C=CC(C2C1=O)C1C2C(=O)N(CCOCC=C)C(=O)C2C31 (configuration not stated)
[9]
  IC50: 19.9 µM (active)

## COc1ccc(S(=O)(=O)NCCSC(C)(C)C)c(Cl)c1Cl
[9]
  IC50: 8.61 µM (active)

## N#Cc1ccsc1NC(=O)COC(=O)CCS(=O)(=O)c1ccccc1
[9]
  IC50: 8.32 µM (active)

## COc1ccc(NC(=O)Nc2ccc3c(c2)CC(=O)N([C@H](C)CO)C[C@H](C)[C@@H](CN(C)CC2CCCCC2)O3)cc1
[8]
  AC50: 4.53 µM (active)

## N#CC1(NC(=O)COc2ccccc2[N+](=O)[O-])CCCCC1
[9]
  IC50: 18.7 µM (active)

## COc1ccccc1-c1ccccc1[C@H]1[C@H](C#N)N(C(=O)C2CCC2)[C@H]1CO
[8]
  AC50: 12 µM (active)

## COc1ccc(NC(=O)Nc2ccc3c(c2)[C@H]2C[C@H](CC(=O)N4CCc5ccccc5C4)O[C@H](CO)[C@H]2O3)cc1
[8]
  AC50: 7.78 µM (active)
